Source: US12679878B2, “CRF2 receptor agonists and their use in therapy” (SANOFI, priority 2020, dated 2026)
Read-outs that look alike come from different tables or passages of the source. Starred links: 1 amine or outer side, 2 acyl side, 3 side chain; linkers in the order of their positions; H or OH if unused. Non-standard residues stand in square brackets, D forms with d. Residues, ends and D or L forms follow the SMILES beside them. Groups on a side chain read outwards from the residue. *: point of attachment. C18 diacid = O=C(O)CCCCCCCCCCCCCCCCC(=O)*; γGlu = O=C(O)[C@H](CCC(=O)[*:2])N[*:1]; Palmitoyl = CCCCCCCCCCCCCCCC(=O)*; AEEA = NCCOCCOCC(=O)O; Aib = CC(C)(N)C(=O)O

What was measured:
Type in all cases: cell-based
human CRF2α receptor = target: T1, human CRF2α receptor (Homo sapiens, UniProt Q13324); assay: cAMP agonism at human CRF2 α receptor in TeloHEAC cells (Example 7); conditions: cAMP HTRF, TeloHEAC cells stably expressing human CRF2 α
T1 construct: expressed in transfected cells; host or cells: TeloHEAC
T1 sequence (Q13324 1-411): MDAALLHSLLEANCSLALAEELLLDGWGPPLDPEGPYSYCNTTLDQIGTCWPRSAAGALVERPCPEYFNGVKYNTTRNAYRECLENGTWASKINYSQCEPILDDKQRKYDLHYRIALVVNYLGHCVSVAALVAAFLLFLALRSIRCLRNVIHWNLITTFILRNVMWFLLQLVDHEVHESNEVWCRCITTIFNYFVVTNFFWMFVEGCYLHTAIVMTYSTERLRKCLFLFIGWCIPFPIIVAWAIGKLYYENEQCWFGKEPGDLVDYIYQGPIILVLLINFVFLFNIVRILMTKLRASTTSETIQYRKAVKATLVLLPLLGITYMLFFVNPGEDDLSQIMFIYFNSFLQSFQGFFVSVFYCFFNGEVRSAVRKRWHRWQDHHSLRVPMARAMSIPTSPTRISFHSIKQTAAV
Summary of the method: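 Percent activation was referenced to 1000 nM UCN2 (100%), and EC50 values taken as concentrations giving half of maximal response. The read-out was a homogeneous time-resolved fluorescence cAMP kit, fluorescence ratio 665/620 nm. Thawed cells (2000/well) saw compound for 30 min at RT in buffer with 2 mM IBMX and 0%/0.1% HSA.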

rat CRF2R α receptor = assay: cAMP agonism at rat CRF2R α receptor in A7R5 rat aortic smooth muscle cells (Example 8); conditions: cAMP HTRF, A7R5 rat aortic smooth muscle cell line, 0% HSA
Summary of the method: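 Thawed cryopreserved A7R5 cells in HBSS/20 mM HEPES (0 or 0.1% HSA) with 2 mM IBMX, 2000 cells/well, were exposed to compound for 30 min at room temperature. cAMP was read by HTRF (665/620 nm ratio) after 1 h with lysis reagents. Activity was normalised to 1000 nM urocortin 2 as 100%, and EC50 was taken as the concentration giving 50% of maximal activation.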

CRF1R receptor = target: T2, CRF1R receptor (Homo sapiens, UniProt P34998); assay: cAMP activity at anti-target CRF1R, CRF1R-overexpression CHO cell line (Example 9); conditions: for EC50: 0% HSA
T2 construct: host or cells: CHO-K1 clone 2
T2 sequence (P34998 24-415): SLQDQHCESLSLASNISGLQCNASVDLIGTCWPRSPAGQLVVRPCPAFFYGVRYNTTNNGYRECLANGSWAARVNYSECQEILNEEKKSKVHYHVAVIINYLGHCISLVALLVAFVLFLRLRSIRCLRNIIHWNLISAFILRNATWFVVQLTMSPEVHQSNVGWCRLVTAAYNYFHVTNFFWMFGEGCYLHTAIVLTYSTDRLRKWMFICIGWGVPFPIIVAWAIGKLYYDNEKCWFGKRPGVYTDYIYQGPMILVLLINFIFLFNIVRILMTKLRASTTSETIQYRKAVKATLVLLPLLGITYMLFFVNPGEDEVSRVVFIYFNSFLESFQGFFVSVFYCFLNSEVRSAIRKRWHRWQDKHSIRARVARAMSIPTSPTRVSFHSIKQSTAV
Summary of the method: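 cAMP accumulation was read by HTRF after 30 min at room temperature of compound treatment. Cells were cryopreserved CHO cells overexpressing CRF1R, plated at 2000/well in IBMX (2 mM)-containing HBSS/HEPES buffer with 0 or 0.1% HSA. Activity was normalized to 1000 nM UCN2 as 100%.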

[1] = 0% HSA, read-out: EC50 [nM], 0% HSA
[2] = CRF1R-overexpression CHO cell line
[3] = CRF1R-overexpression CHO cell line, read-out: Emax (%)

Row | SMILES | EC50 (human CRF2α receptor; [1]) [nM] | EC50 (rat CRF2R α receptor) [nM] | EC50 (CRF1R receptor; [2]) [nM] | Emax (CRF1R receptor; [3]) [%] | EC50 (human CRF2α receptor; 0.1% HSA, read-out: EC50 [nM], 0.1% HSA) [nM] | Emax (CRF1R receptor; CHO) [%]
1 | CCCCCCCCCCCCCCCC(=O)N[C@@H](CCC(=O)NCCCC[C@H](NC(=O)[C@@H](NC(=O)[C@H](CCCCN)NC(=O)[C@@H](NC(=O)[C@@H]1CCCN1C(=O)[C@@H](NC(=O)[C@H](CC(=O)O)NC(=O)[C@H](CC(C)C)NC(=O)[C@H](CO)NC(=O)[C@H](CC(C)C)NC(=O)[C@@H](NC(=O)[C@@H](N)Cc1ccccc1)[C@@H](C)O)C(C)C)[C@@H](C)O)[C@@H](C)CC)C(=O)N[C@@H](CCC(N)=O)C(=O)N[C@@H](CCCCN)C(=O)N[C@@H](CC(C)C)C(=O)N[C@@H](CC(C)C)C(=O)N[C@@H](CCCCN)C(=O)N[C@@H](CCC(N)=O)C(=O)N[C@@H](CCC(=O)O)C(=O)N[C@@H](CCCCN)C(=O)N[C@@H](CCC(N)=O)C(=O)N[C@@H](CCCCN)C(=O)N[C@@H](CCCCN)C(=O)N[C@@H](CCC(N)=O)C(=O)N[C@@H](CCCNC(=N)N)C(=O)N[C@@H](CCC(N)=O)C(=O)N[C@@H](CCCCN)C(=O)N[C@@H](C)C(=O)N[C@@H](CCCCN)C(=O)N[C@H](C(=O)N[C@@H](C)C(=O)N[C@@H](C)C(=O)N[C@@H](CCC(N)=O)C(=O)N[C@H](C(=O)N[C@@H](CC(C)C)C(=O)N[C@@H](C)C(=O)N[C@@H](CCC(N)=O)C(=O)N[C@H](C(N)=O)C(C)C)[C@@H](C)CC)[C@@H](C)O)C(=O)O [compound 8] (H-FTLSLDVPTKIK([γGlu-Palmitoyl])QKLLKQEKQKKQRQKAKTAAQILAQV-NH2; N-terminus assumed) | 0.2 | 0.11 | > 1000 | 16 |  | 
2 | CCCCCCCCCCCCCCCC(=O)N[C@@H](CCC(=O)NCCCC[C@H](NC(=O)[C@@H](NC(=O)[C@H](CCCCN)NC(=O)[C@@H](NC(=O)[C@@H]1CCCN1C(=O)[C@@H](NC(=O)[C@H](CC(=O)O)NC(=O)[C@H](CC(C)C)NC(=O)[C@H](CO)NC(=O)[C@H](CC(C)C)NC(=O)[C@@H](NC(=O)[C@@H](N)Cc1ccccc1)[C@@H](C)O)C(C)C)[C@@H](C)O)[C@@H](C)CC)C(=O)N[C@@H](CCC(N)=O)C(=O)N[C@@H](CCCCN)C(=O)N[C@@H](CC(C)C)C(=O)N[C@@H](CC(C)C)C(=O)N[C@@H](CCCCN)C(=O)N[C@@H](CCC(N)=O)C(=O)N[C@@H](CCC(=O)O)C(=O)N[C@@H](CCCCN)C(=O)N[C@@H](CCC(N)=O)C(=O)N[C@@H](CCCCN)C(=O)N[C@@H](CCCCN)C(=O)N[C@@H](CCC(N)=O)C(=O)N[C@@H](CCCNC(=N)N)C(=O)N[C@@H](CCC(N)=O)C(=O)N[C@@H](CCCCN)C(=O)N[C@@H](C)C(=O)N[C@@H](CCCCN)C(=O)N[C@H](C(=O)N[C@@H](CC(N)=O)C(=O)N[C@@H](C)C(=O)N[C@@H](CCC(N)=O)C(=O)N[C@H](C(=O)N[C@@H](CC(C)C)C(=O)N[C@@H](C)C(=O)N[C@@H](CCC(N)=O)C(=O)N[C@H](C(N)=O)C(C)C)[C@@H](C)CC)[C@@H](C)O)C(=O)O [compound 11] (H-FTLSLDVPTKIK([γGlu-Palmitoyl])QKLLKQEKQKKQRQKAKTNAQILAQV-NH2) | 0.02 | 0.01 | > 1000 | 12.7 |  | 
3 | CC[C@H](C)[C@H](NC(=O)[C@H](CCC(N)=O)NC(=O)[C@H](CCC(=O)O)NC(=O)[C@H](CC(C)C)NC(=O)[C@H](CC(C)C)NC(=O)[C@H](CCC(N)=O)NC(=O)[C@H](CCCCN)NC(=O)[C@H](CC(N)=O)NC(=O)[C@H](CCCCN)NC(=O)[C@H](CCC(=O)O)NC(=O)[C@H](C)NC(=O)[C@H](CCC(N)=O)NC(=O)[C@H](CCC(N)=O)NC(=O)[C@H](CCCNC(=N)N)NC(=O)[C@H](CCC(=O)O)NC(=O)[C@H](CCCCN)NC(=O)[C@H](CCCCN)NC(=O)[C@H](CCC(N)=O)NC(=O)[C@H](CCCCN)NC(=O)[C@H](CCC(N)=O)NC(=O)[C@H](CCC(N)=O)NC(=O)[C@H](CCCCN)NC(=O)[C@H](Cc1ccccc1)NC(=O)[C@H](CC(C)C)NC(=O)[C@@H](NC(=O)[C@H](CCC(N)=O)NC(=O)[C@H](CCCCNC(=O)COCCOCCNC(=O)COCCOCCNC(=O)CC[C@H](NC(=O)CCCCCCCCCCCCCCCCC(=O)O)C(=O)O)NC(=O)[C@@H](NC(=O)[C@H](CCCCN)NC(=O)[C@@H](NC(=O)[C@@H]1CCCN1C(=O)[C@@H](NC(=O)[C@H](CC(=O)O)NC(=O)[C@H](CC(C)C)NC(=O)[C@H](CO)NC(=O)[C@H](CC(C)C)NC(=O)[C@@H](NC(=O)[C@@H](N)Cc1ccccc1)[C@@H](C)O)C(C)C)[C@@H](C)O)[C@@H](C)CC)[C@@H](C)CC)C(N)=O [compound 13] (H-FTLSLDVPTKIK([AEEA-AEEA-γGlu-C18 diacid])QILFKQQKQKKERQQAEKNKQLLEQI-NH2; N-terminus assumed) | 0.98 | 2.5 |  |  | 64.1 | 4.3
4 | CCCCCCCCCCCCCCCC(=O)N[C@@H](CCC(=O)NCCCC[C@H](NC(=O)[C@@H](NC(=O)[C@H](CCCCN)NC(=O)[C@@H](NC(=O)[C@@H]1CCCN1C(=O)[C@@H](NC(=O)[C@H](CC(=O)O)NC(=O)[C@H](CC(C)C)NC(=O)[C@H](CO)NC(=O)[C@H](CC(C)C)NC(=O)[C@@H](NC(=O)[C@@H](N)Cc1ccccc1)[C@@H](C)O)C(C)C)[C@@H](C)O)[C@@H](C)CC)C(=O)N[C@@H](CCC(N)=O)C(=O)N[C@@H](CCCCN)C(=O)N[C@@H](CC(C)C)C(=O)N[C@@H](Cc1ccccc1)C(=O)N[C@@H](CCCCN)C(=O)N[C@@H](CCC(N)=O)C(=O)N[C@@H](C)C(=O)N[C@@H](CCCCN)C(=O)N[C@@H](CCC(N)=O)C(=O)N[C@@H](CCCCN)C(=O)N[C@@H](CCCCN)C(=O)N[C@@H](CCC(N)=O)C(=O)N[C@@H](CCCNC(=N)N)C(=O)N[C@@H](CCC(N)=O)C(=O)N[C@@H](CCCCN)C(=O)N[C@@H](C)C(=O)N[C@@H](CCCCN)C(=O)N[C@H](C(=O)N[C@@H](CC(N)=O)C(=O)N[C@@H](C)C(=O)N[C@@H](CCC(N)=O)C(=O)N[C@H](C(=O)N[C@@H](CC(C)C)C(=O)N[C@@H](C)C(=O)N[C@@H](CCCNC(=N)N)C(=O)N[C@H](C(N)=O)C(C)C)[C@@H](C)CC)[C@@H](C)O)C(=O)O [compound 15] (H-FTLSLDVPTKIK([γGlu-Palmitoyl])QKLFKQAKQKKQRQKAKTNAQILARV-NH2; N-terminus assumed) | 0.88 | 1.38 | > 1000 | 7.75 |  | 
5 | CC[C@H](C)[C@H](NC(C)=O)C(=O)N[C@H](C(=O)N[C@@H](CC(C)C)C(=O)N[C@@H](CO)C(=O)N[C@@H](CC(C)C)C(=O)N[C@@H](CC(=O)O)C(=O)N[C@@H](C(=O)N1CCC[C@H]1C(=O)N[C@H](C(=O)NCC(=O)N[C@@H](CC(C)C)C(=O)N[C@@H](CCCCNC(=O)COCCOCCNC(=O)COCCOCCNC(=O)CC[C@H](NC(=O)CCCCCCCCCCCCCCCCC(=O)O)C(=O)O)C(=O)N[C@@H](CCC(N)=O)C(=O)N[C@H](C(=O)N[C@@H](CC(C)C)C(=O)N[C@@H](CC(C)C)C(=O)N[C@@H](CCC(=O)O)C(=O)N[C@@H](CCC(N)=O)C(=O)N[C@@H](CCC(=O)O)C(=O)N[C@@H](CCCNC(=N)N)C(=O)N[C@@H](CCC(N)=O)C(=O)N[C@@H](CCCCN)C(=O)NC(C)(C)C(=O)N[C@@H](CCC(N)=O)C(=O)N[C@@H](CCCNC(=N)N)C(=O)N[C@@H](CCC(=O)O)C(=O)N[C@@H](CCC(N)=O)C(=O)N[C@@H](C)C(=O)N[C@@H](CCC(=O)O)C(=O)N[C@@H](CCCCN)C(=O)N[C@@H](CC(N)=O)C(=O)N[C@@H](CCC(=O)O)C(=O)N[C@@H](CCC(N)=O)C(=O)N[C@H](C(=O)N[C@@H](CC(C)C)C(=O)N[C@@H](CCC(=O)O)C(=O)N[C@@H](CCC(N)=O)C(=O)N[C@H](C(N)=O)C(C)C)[C@@H](C)CC)[C@@H](C)CC)[C@@H](C)CC)C(C)C)C(C)C [compound 167] (Ac-IVLSLD[dV]PIGLK([AEEA-AEEA-γGlu-C18 diacid])QILLEQERQK[Aib]QREQAEKNEQILEQV-NH2) |  | 76.9 |  | -0.46 |  | 
